# According to doi:10.1101/2025.10.09.681351v1 (biorxiv, 2025):
# Key:
# [1] = biological target: EPAS1 (mouse recombinant EPAS1; HIF-2α) (Mus musculus, UniProt P97481); assay: isothermal titration calorimetry; format: binding
# [2] = biological target: recombinant human EPAS1 (Homo sapiens, UniProt Q99814); assay: isothermal titration calorimetry; format: binding
# recombinant human EPAS1, sequence (Q99814 whole entry): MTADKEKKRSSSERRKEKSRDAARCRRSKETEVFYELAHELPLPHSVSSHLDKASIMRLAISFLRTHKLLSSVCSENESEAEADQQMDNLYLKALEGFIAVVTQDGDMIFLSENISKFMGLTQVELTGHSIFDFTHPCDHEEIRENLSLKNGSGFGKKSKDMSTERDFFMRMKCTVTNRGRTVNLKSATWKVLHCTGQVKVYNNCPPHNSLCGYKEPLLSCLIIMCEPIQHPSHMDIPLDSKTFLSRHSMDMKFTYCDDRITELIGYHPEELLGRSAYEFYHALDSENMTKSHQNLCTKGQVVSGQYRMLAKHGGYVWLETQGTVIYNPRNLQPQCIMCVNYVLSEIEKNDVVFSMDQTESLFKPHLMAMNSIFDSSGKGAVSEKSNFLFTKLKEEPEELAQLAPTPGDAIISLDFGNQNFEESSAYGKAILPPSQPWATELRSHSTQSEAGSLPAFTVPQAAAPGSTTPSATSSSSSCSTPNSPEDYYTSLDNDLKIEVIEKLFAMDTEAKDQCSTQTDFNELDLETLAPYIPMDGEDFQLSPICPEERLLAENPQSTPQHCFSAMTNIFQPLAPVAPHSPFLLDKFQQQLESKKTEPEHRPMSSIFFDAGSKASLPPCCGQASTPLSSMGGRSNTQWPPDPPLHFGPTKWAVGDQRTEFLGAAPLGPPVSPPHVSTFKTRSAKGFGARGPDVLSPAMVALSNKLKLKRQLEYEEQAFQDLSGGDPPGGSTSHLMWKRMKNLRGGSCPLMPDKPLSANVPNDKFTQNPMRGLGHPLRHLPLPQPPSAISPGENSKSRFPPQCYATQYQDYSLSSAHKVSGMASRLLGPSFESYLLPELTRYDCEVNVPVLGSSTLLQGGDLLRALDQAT
# EPAS1 (mouse recombinant EPAS1; HIF-2α), sequence (P97481 whole entry): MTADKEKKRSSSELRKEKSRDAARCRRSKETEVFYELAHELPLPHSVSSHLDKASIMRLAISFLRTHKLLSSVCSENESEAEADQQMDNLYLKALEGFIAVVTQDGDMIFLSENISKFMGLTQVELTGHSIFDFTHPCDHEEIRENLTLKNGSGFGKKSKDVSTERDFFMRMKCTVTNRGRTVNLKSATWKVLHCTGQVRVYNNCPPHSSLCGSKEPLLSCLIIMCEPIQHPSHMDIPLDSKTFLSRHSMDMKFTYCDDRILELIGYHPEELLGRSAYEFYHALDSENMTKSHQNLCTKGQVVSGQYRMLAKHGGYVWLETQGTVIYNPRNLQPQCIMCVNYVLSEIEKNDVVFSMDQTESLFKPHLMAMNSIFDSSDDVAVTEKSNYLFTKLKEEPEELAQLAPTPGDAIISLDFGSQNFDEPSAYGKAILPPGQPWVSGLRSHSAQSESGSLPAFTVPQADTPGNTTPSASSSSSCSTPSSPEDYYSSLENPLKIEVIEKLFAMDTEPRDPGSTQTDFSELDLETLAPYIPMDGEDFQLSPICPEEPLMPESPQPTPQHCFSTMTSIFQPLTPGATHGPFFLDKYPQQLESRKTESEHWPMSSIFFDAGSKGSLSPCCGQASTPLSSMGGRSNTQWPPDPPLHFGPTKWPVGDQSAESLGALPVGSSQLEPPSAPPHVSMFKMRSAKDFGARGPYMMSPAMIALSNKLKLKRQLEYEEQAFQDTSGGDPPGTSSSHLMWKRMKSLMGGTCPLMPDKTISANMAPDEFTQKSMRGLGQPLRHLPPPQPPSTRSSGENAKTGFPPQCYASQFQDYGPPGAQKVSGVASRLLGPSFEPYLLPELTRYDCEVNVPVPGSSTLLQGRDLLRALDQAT
smiles,measurement,setting,value
CCCCCCCCC/C=C\C(=O)O [BDSF],Kd,[1],4.3 µM
same,Kd,[2],5.3 µM
